Assay [1] deals with T1, Mu-type opioid receptor (Homo sapiens, UniProt P35372). The note with it: CHO; 100 nM.
Description: Agonist activity against mu opioid receptor expressed in CHO cells assessed as stimulation of [35S]-GTPgammaS binding at 100 nM relative to DAMGO
Assay [2] can be described thus: Selectivity ratio of Ki for delta opioid receptor to Ki for mu opioid receptor.
Assay [3] is described as follows: Selectivity ratio of Ki for kappa opioid receptor to Ki for mu opioid receptor.
Assay [4] concerns the target T1, Mu-type opioid receptor. As to the kind of experiment: Displacement of [3H]naloxone from mu opioid receptor expressed in CHO cells after 1 hr. In kind it is cell-based.
Assay [5] deals with Kappa-type opioid receptor (Homo sapiens, UniProt P41145). As to the kind of experiment: Displacement of [3H]-norBNI from kappa opioid receptor expressed in CHO cells after 1 hr. In kind it is cell-based.
The target in assay [6] is Delta-type opioid receptor (Homo sapiens, UniProt P41143). Description: Displacement of [3H]-NTI from delta opioid receptor expressed in CHO cells after 1 hr. In kind it is cell-based.
For assay [7], the target named is T1, Mu-type opioid receptor. Description: Agonist activity against mu opioid receptor expressed in CHO cells assessed as stimulation of [35S]-GTPgammaS binding. In kind it is functional, cell-based.
In assay [8] the target is T1, Mu-type opioid receptor. As to the kind of experiment: Agonist activity against mu opioid receptor expressed in CHO cells assessed as stimulation of [35S]-GTPgammaS binding relative to DAMGO. In kind it is functional, cell-based. (In general: Binding of GTPγS marks nucleotide exchange on a G protein.)

T1 sequence (P35372 whole entry): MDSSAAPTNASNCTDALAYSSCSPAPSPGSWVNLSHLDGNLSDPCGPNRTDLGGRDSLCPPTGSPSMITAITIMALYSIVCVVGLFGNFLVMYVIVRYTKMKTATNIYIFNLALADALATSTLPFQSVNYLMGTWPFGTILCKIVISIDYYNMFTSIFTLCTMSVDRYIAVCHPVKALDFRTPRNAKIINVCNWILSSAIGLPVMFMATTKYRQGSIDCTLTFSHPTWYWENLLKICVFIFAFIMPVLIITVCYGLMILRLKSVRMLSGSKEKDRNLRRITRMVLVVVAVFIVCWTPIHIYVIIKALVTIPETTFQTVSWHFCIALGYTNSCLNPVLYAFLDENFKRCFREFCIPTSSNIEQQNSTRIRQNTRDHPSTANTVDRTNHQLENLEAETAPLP
Chain of Delta-type opioid receptor (P41143 whole entry): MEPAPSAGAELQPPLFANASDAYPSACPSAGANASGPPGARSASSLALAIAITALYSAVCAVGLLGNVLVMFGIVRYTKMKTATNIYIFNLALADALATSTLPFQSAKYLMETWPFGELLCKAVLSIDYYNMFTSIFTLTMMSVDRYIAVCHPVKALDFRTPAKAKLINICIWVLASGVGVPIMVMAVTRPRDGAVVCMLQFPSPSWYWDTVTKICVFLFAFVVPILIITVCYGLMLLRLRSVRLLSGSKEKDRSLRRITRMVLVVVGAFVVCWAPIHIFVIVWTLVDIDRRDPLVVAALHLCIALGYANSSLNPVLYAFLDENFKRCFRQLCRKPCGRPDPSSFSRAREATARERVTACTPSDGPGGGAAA
Chain of Kappa-type opioid receptor (P41145 whole entry): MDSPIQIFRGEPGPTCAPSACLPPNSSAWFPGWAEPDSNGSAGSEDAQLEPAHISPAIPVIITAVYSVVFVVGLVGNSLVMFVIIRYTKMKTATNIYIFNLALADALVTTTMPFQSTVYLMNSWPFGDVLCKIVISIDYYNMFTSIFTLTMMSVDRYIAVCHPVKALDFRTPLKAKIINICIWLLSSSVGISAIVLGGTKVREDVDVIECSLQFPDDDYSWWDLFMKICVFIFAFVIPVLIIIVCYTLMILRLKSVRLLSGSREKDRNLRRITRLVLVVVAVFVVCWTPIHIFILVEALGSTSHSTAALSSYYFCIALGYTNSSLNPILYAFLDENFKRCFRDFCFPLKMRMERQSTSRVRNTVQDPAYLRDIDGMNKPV

As a reminder, the Emax is the size of the effect at its maximum, as opposed to the concentration needed. Take `C[C@@H](O)[C@H](NC(=O)[C@H]1NC(=O)[C@H]([C@@H](C)O)NC(=O)[C@H](CCCNC(=N)N)NC(=O)[C@@H](Cc2c[nH]c3ccccc23)NC(=O)[C@H](Cc2ccc(O)cc2)NC(=O)[C@@H](NC(=O)[C@H]2Cc3ccccc3CN2)CSSC1(C)C)C(N)=O`: at Mu-type opioid receptor [1], the Emax was 1.99%.

Usually Ki stands for a dissociation constant, usually derived from enzyme kinetics or from competition with a known ligand. The low end stands for tighter binding, the high end for weaker binding. One may read the EC50 as the concentration that produces a half-maximal response. Turning to `CN1CCC(C(=O)N[C@@H]2CC[C@@]3(O)[C@H]4Cc5ccc(O)c6c5[C@@]3(CCN4CC3CC3)[C@H]2O6)CC1`, the Ratio Ki was 2970 in assay [2] and 7.5 in assay [3]. The Ki at Mu-type opioid receptor [4] was 0.87 nM; in assay [5], 6.49 nM; in assay [6], 2590 nM. The 50% effective concentration (EC50) at Mu-type opioid receptor [7] was determined as 5.08 nM. Moreover, the Emax on Mu-type opioid receptor [8] is 37.2%.

As for `Cc1cc(C(=O)N[C@@H]2CC[C@@]3(O)[C@H]4Cc5ccc(O)c6c5[C@@]3(CCN4CC3CC3)[C@H]2O6)ccn1`, the results for the Ratio Ki in assay [2] and in assay [3] were 232 and 1.5, respectively. Further, the Ki turned out to be 0.39 nM at Mu-type opioid receptor [4], 0.58 nM in assay [5] and 90.1 nM in assay [6]. The EC50 at Mu-type opioid receptor [7] stood at 1.13 nM. Further, at Mu-type opioid receptor [8], the Emax was determined as 43.3%.

Consider `O=C(CNC(=O)c1ccncc1)N[C@@H]1CC[C@@]2(O)[C@H]3Cc4ccc(O)c5c4[C@@]2(CCN3CC2CC2)[C@H]1O5`, for which the inhibition constant (Ki) at Mu-type opioid receptor [4] was determined as 0.73 nM; in assay [5], 203 nM; in assay [6], 526 nM. Further, at Mu-type opioid receptor [7], the EC50 was 2.84 nM. The Emax on Mu-type opioid receptor [8] came to 22.6%.

For the compound `O=C(N[C@@H]1CC[C@@]2(O)[C@H]3Cc4ccc(O)c5c4[C@@]2(CCN3CC2CC2)[C@H]1O5)c1ccnc(Cl)c1`, the figures for the Ratio Ki in assay [2] and in assay [3] were 6110 and 1.5, respectively. The Ki on Mu-type opioid receptor [4] turned out to be 0.1 nM; in assay [5] it was 0.15 nM; in assay [6], 602 nM. For the same compound, at Mu-type opioid receptor [7], the EC50 stood at 0.83 nM. On Mu-type opioid receptor [8], the Emax came out at 58.2%.

For `Cc1cnccc1C(=O)N[C@@H]1CC[C@@]2(O)[C@H]3Cc4ccc(O)c5c4[C@@]2(CCN3CC2CC2)[C@H]1O5`, the Ratio Ki stood at 470 in assay [2] and 166 in assay [3]. Further, the Ki on Mu-type opioid receptor [4] is 0.58 nM; in assay [5], 96.7 nM; in assay [6], 274 nM. The EC50 on Mu-type opioid receptor [7] turned out to be 1.52 nM. Further, the maximal effect (Emax) at Mu-type opioid receptor [8] came to 30.6%.

Turning to `O=C(Cc1ccncc1)N[C@@H]1CC[C@@]2(O)[C@H]3Cc4ccc(O)c5c4[C@@]2(CCN3CC2CC2)[C@H]1O5`, the Ratio Ki was 1020 in assay [2] and 10.6 in assay [3]. Also, the results for the Ki (at Mu-type opioid receptor [4]; in assay [5]; in assay [6]) were 0.85 nM, 9.01 nM and 866 nM, respectively. Moreover, the concentration for a half-maximal effect (EC50) on Mu-type opioid receptor [7] was determined as 2.32 nM. In addition, the maximum response (Emax) at Mu-type opioid receptor [8] was determined as 32.8%.

With `O=C(N[C@@H]1CC[C@@]2(O)[C@H]3Cc4ccc(O)c5c4[C@@]2(CCN3CC2CC2)[C@H]1O5)c1ccncc1Cl`, the results for the Ratio Ki in assay [2] and in assay [3] were 746 and 29.6, respectively. Also, the Ki on Mu-type opioid receptor [4] amounted to 0.67 nM; in assay [5] it was 19.9 nM; in assay [6] it was 502 nM. On Mu-type opioid receptor [7], the EC50 is 2.32 nM. For the same compound, the Emax on Mu-type opioid receptor [8] amounted to 24.9%.

Take `O=C(CCc1ccncc1)N[C@@H]1CC[C@@]2(O)[C@H]3Cc4ccc(O)c5c4[C@@]2(CCN3CC2CC2)[C@H]1O5`: the Ratio Ki stood at 516 in assay [2] and 2.9 in assay [3]. For the same compound, the values for the Ki (on Mu-type opioid receptor [4]; in assay [5]; in assay [6]) were 0.57 nM, 1.65 nM and 294 nM, respectively. Besides, on Mu-type opioid receptor [7], the EC50 is 1.46 nM. Moreover, the maximal effect (Emax) at Mu-type opioid receptor [8] worked out at 22.6%.

On to `O=C(N[C@@H]1CC[C@@]2(O)[C@H]3Cc4ccc(O)c5c4[C@@]2(CCN3CC2CC2)[C@H]1O5)c1ccncc1Br`, for which the Ratio Ki in assay [2] is 285; in assay [3], 6.3. For the same compound, the Ki at Mu-type opioid receptor [4] stood at 0.45 nM; in assay [5] it was 2.83 nM; in assay [6], 128 nM. Further, the concentration for a half-maximal effect (EC50) on Mu-type opioid receptor [7] came to 1.31 nM. On Mu-type opioid receptor [8], the Emax amounted to 23.2%.

For the compound `O=C(N[C@@H]1CC[C@@]2(O)[C@H]3Cc4ccc(O)c5c4[C@@]2(CCN3CC2CC2)[C@H]1O5)c1ccnc(Br)c1`, the Ratio Ki stood at 276 in assay [2] and 0.3 in assay [3]. In addition, the results for the Ki (on Mu-type opioid receptor [4]; in assay [5]; in assay [6]) were 0.63 nM, 0.18 nM and 174 nM, respectively. Besides, the EC50 at Mu-type opioid receptor [7] stood at 1.19 nM. Moreover, the Emax on Mu-type opioid receptor [8] turned out to be 50.8%.

The values above are taken from ChEMBL document CHEMBL1821548, “Structure selectivity relationship studies of 17-cyclopropylmethyl-3,14β-dihydroxy-4,5α-epoxy-6β-[(4'-pyridyl)carboxamido]morphinan derivatives toward the development of the mu opioid receptor antagonists” (Bioorg Med Chem Lett, 2011).
